In patent US20240374631A1, “A COMPOSITION FOR IMPROVING GUT MICROBIOTA, BEHAVIOURAL PATTERN, ALPHA-SYNUCLEIN LEVELS, SLEEP PATTERN AND/OR SERUM MELATONIN” (GN Corporation Co Ltd, priority 2021, published 2024):

Test system: gut microbiota
Assay: Gut microbiome analysis (16S rRNA sequencing of fecal samples) in STAM model of NASH
Type: in vivo, C57BL/6J mice
Details: pre
Text: The study is reported in accordance with Animal Research: Reporting of In Vivo Experiments (ARRIVE) guidelines. C57BL/6J mice were obtained from Japan SLC, Inc. (Japan). All animals used in this study were cared for under the following guidelines: Act on Welfare and Management of Animals (Ministry of the Environment, Japan, Act No. 105 of Oct. 1, 1973), standards relating to the care and management of laboratory animals and relief of pain (Notice No. 88 of the Ministry of the Environment, Japan, Apr. 28, 2006) and the guidelines for proper conduct of animal experiments (Science Council of Japan, Jun. 1, 2006). Protocol approvals were obtained from SMC Laboratories, Japan's IACUC (Study reference no: […] Mice were maintained in a specific pathogen-free (SPF) facility under controlled conditions of temperature (23±3° C.), humidity (50±20%), lighting (12-hour artificial light and dark cycles; light from 8:00 to 20:00) and air exchange. The STAM model of NASH was induced as previously described [D10]. Mice were given a single subcutaneous injection of 200 μg streptozotocin (STZ, Sigma-Aldrich, USA) solution 2 days after birth and fed with a high-fat diet (HFD, 57 kcal % fat, Cat #HFD32, CLEA Japan, Inc., Japan) from 4-9 weeks of age. All mice develop liver steatosis and diabetes and at […] mice had established steatohepatitis, histologically. Studygroups: There were five study groups, described below. Eight mice were included in each study group. Eight NASH mice were orally administered vehicle supplemented with AFO-202 Beta Glucan at a dose of 1 mg/kg in a volume of 5 mL/kg once daily from 6 to 9 weeks of age. Eight NASH mice were orally administered vehicle supplemented with Telmisartan at a dose of 10 mg/kg once daily from 6 to 9 weeks of age. Frequency: Fecal samples were collected at the 6 weeks of age (before administration) and 9 weeks of age (before sacrifice). Procedure: At 6 weeks of age, fecal samples were collected from each mouse by clean catch method. […] A sterile petri dish was placed on the bench. Gently massage the abdomen, position the bottom of mouse over a fresh petri dish, and collect 1-2 fecal pellets. At sacrifice, fecal samples were aseptically collected from cecum. The tubes with feces were placed on ice immediately. These tubes were snap frozen in liquid nitrogen and stored at -80° C. for shipping. In this analysis, the 16S rRNA sequence data acquired by the next-generation sequencer from the fecal […] was used to perform community analysis using the QIIME2 program for microbial community analysis. The raw read data in FASTQ format output from the next-generation sequencer was trimmed to remove adapter sequences and low QV regions that may be included in the data. Cutadapt was used to remove adapter sequences from DNA sequencing reads. Trimmomatic was used as read trimming tool for Illumina NGS data. The adapter sequence was trimmed using the adapter trimming program “cutadapt” if the Trimming of the region at the end of the read sequence overlapped the corresponding sequence by at least one base (mismatch tolerance: 20%). When reads containing N were present in at least one of Read1 and Read2, both Read1 and Read2 were removed. Trimming of low QV regions was performed on the read data after processing using the QV trimming program “Trimmomatic” under the following conditions. The window of 20 bases is slid from the 5' side, and the area where the average QV is less than 20 is trimmed. After trimming, only the reads with more than 50 bases remaining in both Read1 and Read2 were taken as output. The microbial community analysis based on 16S rRNA sequence was performed on the sequence data trimmed in the previous section using the microbial community analysis program “QIIME2”. The annotation program “sklearn” included in QIIME2 is used to annotate the ASV (OTU) sequences. […]

## CCCc1nc2c(C)cc(-c3nc4ccccc4n3C)cc2n1Cc1ccc(-c2ccccc2C(=O)O)cc1 [Telmisartan]
Line r81
  Abundance S24-7/—/—: 327
Line r83
  Abundance Lachnospiraceae/[Ruminococcus]/gnavus: 120
Line r84
  Abundance Ruminococcaceae/Oscillospira/—: 284
Line r85
  Abundance Ruminococcaceae/Anaerotruncus/—: 638
Line r86
  Abundance Alcaligenaceae/Sutterella/—: 191
Line r87
  Abundance S24-7/—/—: 394
Line r88
  Abundance F16/—/—: 329
Line r90
  Abundance Other/Other/Other: 276
Line r91
  Abundance Lachnospiraceae/[Ruminococcus]/gnavus: 168
Line r92
  Abundance S24-7/—/—: 476
Line r93
  Abundance Rikenellaceae/—/—: 259
Line r94
  Abundance Lachnospiraceae/[Ruminococcus]/gnavus: 62
Line r95
  Abundance Lachnospiraceae/—/—: 250
Line r96
  Abundance Clostridiaceae/Other/Other: 693
Line r97
  Abundance Lachnospiraceae/—/—: 78
Line r98
  Abundance Ruminococcaceae/Oscillospira/—: 160
Line r99
  Abundance Enterococcaceae/Enterococcus/—: 32
Line r100
  Abundance Rikenellaceae/—/—: 239
Line r101
  Abundance S24-7/—/—: 208
Line r102
  Abundance Lactobacillaceae/Lactobacillus/reuteri: 0
Line r103
  Abundance Bacteroidaceae/Bacteroides/acidifaciens: 161
Line r104
  Abundance Ruminococcaceae/Oscillospira/—: 202
Line r105
  Abundance Enterobacteriaceae/Escherichia/coli: 0
Line r106
  Abundance Ruminococcaceae/Oscillospira/—: 152
Line r107
  Abundance —/—/—: 228
Line r108
  Abundance S24-7/—/—: 157
Line r109
  Abundance —/—/—: 988
Line r110
  Abundance Other/Other/Other: 463
Line r111
  Abundance Lachnospiraceae/—/—: 46
Line r112
  Abundance Lachnospiraceae/[Ruminococcus]/gnavus: 148
Line r113
  Abundance Lachnospiraceae/—/—: 390
Line r114
  Abundance Enterobacteriaceae/Klebsiella/Other: 0
Line r115
  Abundance Lachnospiraceae/—/—: 76
Line r116
  Abundance Enterobacteriaceae/Klebsiella/—: 0
Line r117
  Abundance —/—/—: 0
Line r118
  Abundance Lactobacillaceae/Lactobacillus/—: 4
Line r119
  Abundance Other/Other/Other: 57
Line r120
  Abundance —/—/—: 209
Line r121
  Abundance Erysipclotrichaceae/Allobaculum/—: 203
Line r122
  Abundance —/—/—: 131
Line r123
  Abundance Lachnospiraceae/—/—: 207
Line r124
  Abundance —/—/—: 362
Line r125
  Abundance Other/Other/Other: 58
Line r126
  Abundance Lactobacillaceae/Lactobacillus/reuteri: 0
Line r127
  Abundance Ruminococcaceae/Oscillospira/—: 158
Line r128
  Abundance Lachnospiraceae/—/—: 50
Line r130
  Abundance S24-7/—/—: 64
Line r131
  Abundance Lachnospiraceae/—/—: 315
Line r132
  Abundance S24-7/—/—: 104
Line r133
  Abundance S24-7/—/—: 60
Line r134
  Abundance Lachnospiraceae/—/—: 19
Line r135
  Abundance —/—/—: 28
Line r136
  Abundance Coriobacteriaceae/Adlercreutzia/—: 110
Line r137
  Abundance —/—/—: 200
Line r138
  Abundance Clostidiaceae/Other/Other: 0
Line r139
  Abundance Turicibacteraceae/Turicibacter/—: 125
Line r140
  Abundance Ruminococcaceae/Ruminococcus/—: 193
Line r141
  Abundance Ruminococcaceae/Oscillospira/—: 215
Line r142
  Abundance Dehalobacteriaceae/Dehalobacterium/—: 43
Line r143
  Abundance Staphylococcaceae/Staphylococcus/Other: 110
Line r144
  Abundance Rikenellaceae/—/—: 61
Line r145
  Abundance Lachnospiraceae/—/—: 87
Line r146
  Abundance —/—/—: 60
Line r147
  Abundance Staphylococcaceae/Staphylococcus/sciuri: 34
Line r148
  Abundance —/—/—: 103
Line r149
  Abundance Ruminococcaceae/Ruminococcus/—: 157
Line r150
  Abundance Coriobacteriaceae/Adlercreutzia/—: 101
Line r151
  Abundance Ruminococcaceae/Oscillospira/—: 61
Line r152
  Abundance Lachnospiraceae/Clostridium/Other: 85
Line r153
  Abundance Lachnospiraceae/Coprococcus/—: 151
Line r154
  Abundance Desulfovibrionaceae/—/—: 50
Line r155
  Abundance —/—/—: 94
Line r156
  Abundance Lachnospiraceae/—/—: 0
Line r157
  Abundance Dehalobacteriaceae/Dehalobacterium/—: 41
Line r158
  Abundance Coriobacteriaceae/Adlercreutzia/—: 90
Line r159
  Abundance Lachnospiraceae/—/—: 37
Line r160
  Abundance Lachnospiraceae/—/—: 168
Line r161
  Abundance Ruminococcaceae/Oscillospira/—: 0
Line r163
  Abundance Streptococcaceae/Streptococcus/—: 0
Line r164
  Abundance Lachnospiraceae/[Ruminococcus]/gnavus: 83
Line r165
  Abundance Lachnospiraceae/—/—: 102
Line r166
  Abundance Lachnospiraceae/—/—: 231
Line r167
  Abundance Coriobacteriaceae/Adlercreutzia/—: 74
Line r169
  Abundance Erysipelotrichaceae/Clostridium/cocleatum: 0
Line r170
  Abundance S24-7/—/—: 53
Line r171
  Abundance Lachnospiraceae/—/—: 27
Line r172
  Abundance Bacteroidaceae/Bacteroides/—: 55
Line r173
  Abundance Ruminococcaceae/Oscillospira/—: 59
Line r174
  Abundance Ruminococcaceae/—/—: 41
Line r175
  Abundance Lachnospiraceae/Other/Other: 52
Line r176
  Abundance Lachnospiraceae/Dorea/—: 28
Line r177
  Abundance Lachnospiraceae/—/—: 0
Line r178
  Abundance S24-7/—/—: 168
Line r179
  Abundance Lachnospiraceae/—/—: 92
Line r180
  Abundance Lactobacillaceae/Lactobaccilus/Other: 0
Line r181
  Abundance —/—/—: 34
Line r182
  Abundance Ruminococcaceae/Oscillospira/—: 99
Line r183
  Abundance S24-7/—/—: 55
Line r184
  Abundance S24-7/—/—: 67
Line r185
  Abundance [Mogibacteriaceae]/—/—: 36
Line r186
  Abundance Peptococcaceae/—/—: 43
Line r187
  Abundance —/—/—: 13
Line r188
  Abundance —/—/—: 0
Line r189
  Abundance S24-7/—/—: 76
